Values of other authors as cited in patent publication US12509559B2, “Bacterial beta-lactamase responsive hydrogels” (Brown University, priority 2019, dated 2025).

Conditions: adamantane in β-cyclodextrin cavity

In the case of C1C2CC3CC1CC(C2)C3 [adamantane], the “association constant, K” value is given as ~10^5 M^−1.
